According to PubChem BioAssay (NCI):
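Each compound was tested at five concentrations against cells in 96-well plates for 48 hours. Abbreviation: GI50, concentration required for 50% inhibition of growth. TGI is the concentration that stops growth completely.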

Experiments:
Assay in all cases: inhibition of tumour cell growth, NCI panel, 48 h
UACC-62 melanoma = system: UACC-62 melanoma
SNB-19 CNS = system: SNB-19 CNS
OVCAR-8 ovarian = system: OVCAR-8 ovarian
SK-MEL-28 melanoma = system: SK-MEL-28 melanoma
786-0 renal = system: 786-0 renal
MOLT-4 leukemia = system: MOLT-4 leukemia
SF-295 CNS = system: SF-295 CNS
IGROV1 ovarian = system: IGROV1 ovarian
K-562 leukemia = system: K-562 leukemia
HCT-15 colon = system: HCT-15 colon
A498 renal = system: A498 renal
SF-539 CNS = system: SF-539 CNS
A549 NSCLC = system: A549 NSCLC
NCI-H226 lung = system: NCI-H226 lung
RXF 393 renal = system: RXF 393 renal
SK-MEL-2 melanoma = system: SK-MEL-2 melanoma
KM12 colon = system: KM12 colon
OVCAR-3 ovarian = system: OVCAR-3 ovarian
CCRF-CEM leukemia = system: CCRF-CEM leukemia
HT29 colon = system: HT29 colon
PC-3 prostate = system: PC-3 prostate
SF-268 CNS = system: SF-268 CNS
LOX IMVI melanoma = system: LOX IMVI melanoma
MCF7 breast = system: MCF7 breast
T-47D breast = system: T-47D breast
RPMI-8226 leukemia = system: RPMI-8226 leukemia
NCI-H522 lung = system: NCI-H522 lung
HL-60(TB) leukemia = system: HL-60(TB) leukemia
SW-620 colon = system: SW-620 colon
HCT-116 colon = system: HCT-116 colon
DU-145 prostate = system: DU-145 prostate
ACHN renal = system: ACHN renal
HOP-62 NSCLC = system: HOP-62 NSCLC
NCI/ADR-RES ovarian = system: NCI/ADR-RES ovarian
MALME-3M melanoma = system: MALME-3M melanoma
HOP-92 NSCLC = system: HOP-92 NSCLC
M14 melanoma = system: M14 melanoma
COLO 205 colon = system: COLO 205 colon
OVCAR-5 ovarian = system: OVCAR-5 ovarian
UACC-257 melanoma = system: UACC-257 melanoma
U251 CNS = system: U251 CNS
TK-10 renal = system: TK-10 renal
SN12C renal = system: SN12C renal
NCI-H23 lung = system: NCI-H23 lung
CAKI-1 renal = system: CAKI-1 renal
SNB-75 CNS = system: SNB-75 CNS
MDA-MB-435 = system: MDA-MB-435
SK-OV-3 ovarian = system: SK-OV-3 ovarian
MDA-MB-231 breast = system: MDA-MB-231 breast
EKVX NSCLC = system: EKVX NSCLC
BT-549 breast = system: BT-549 breast
UO-31 renal = system: UO-31 renal
OVCAR-4 ovarian = system: OVCAR-4 ovarian
NCI-H460 lung = system: NCI-H460 lung
SK-MEL-5 melanoma = system: SK-MEL-5 melanoma
HCC-2998 colon = system: HCC-2998 colon
SR leukemia = system: SR leukemia

NC(=O)c1ccc2nc3c(n2c1)C(=O)C(=O)c1ccccc1-3
GI50 (UACC-62 melanoma): 0.545 µM
TGI (UACC-62 melanoma): 1.77 µM
GI50 (SNB-19 CNS): 1.1 µM
TGI (SNB-19 CNS): 2.31 µM
GI50 (OVCAR-8 ovarian): 0.403 µM
TGI (OVCAR-8 ovarian): 1.63 µM
GI50 (SK-MEL-28 melanoma): 1.07 µM
TGI (SK-MEL-28 melanoma): 2.29 µM
GI50 (786-0 renal): 1.63 µM
TGI (786-0 renal): 2.99 µM
GI50 (MOLT-4 leukemia): 1.02 µM
TGI (MOLT-4 leukemia): 4.21 µM
GI50 (SF-295 CNS): 1.67 µM
TGI (SF-295 CNS): 3.07 µM
GI50 (IGROV1 ovarian): 1.63 µM
TGI (IGROV1 ovarian): 3.34 µM
GI50 (K-562 leukemia): 0.677 µM
TGI (K-562 leukemia): 3.73 µM
GI50 (HCT-15 colon): 1.46 µM
TGI (HCT-15 colon): 3.55 µM
GI50 (A498 renal): 1.73 µM
TGI (A498 renal): 3.14 µM
GI50 (SF-539 CNS): 0.621 µM
TGI (SF-539 CNS): 1.85 µM
GI50 (A549 NSCLC): 2.18 µM
TGI (A549 NSCLC): 4.48 µM
GI50 (NCI-H226 lung): 1.71 µM
TGI (NCI-H226 lung): 3.8 µM
GI50 (RXF 393 renal): 1.64 µM
TGI (RXF 393 renal): 3.02 µM
GI50 (SK-MEL-2 melanoma): 0.633 µM
TGI (SK-MEL-2 melanoma): 1.91 µM
GI50 (KM12 colon): 1.39 µM
TGI (KM12 colon): 2.97 µM
GI50 (OVCAR-3 ovarian): 0.24 µM
TGI (OVCAR-3 ovarian): 0.63 µM
GI50 (CCRF-CEM leukemia): 0.931 µM
TGI (CCRF-CEM leukemia): 5.42 µM
GI50 (HT29 colon): 2.4 µM
TGI (HT29 colon): 6.01 µM
GI50 (PC-3 prostate): 1.04 µM
TGI (PC-3 prostate): 2.78 µM
GI50 (SF-268 CNS): 0.436 µM
TGI (SF-268 CNS): 1.66 µM
GI50 (LOX IMVI melanoma): 0.264 µM
TGI (LOX IMVI melanoma): 0.787 µM
GI50 (MCF7 breast): 0.23 µM
TGI (MCF7 breast): 0.702 µM
GI50 (T-47D breast): 0.415 µM
TGI (T-47D breast): 2.54 µM
GI50 (RPMI-8226 leukemia): 2.2 µM
TGI (RPMI-8226 leukemia): 5.52 µM
GI50 (NCI-H522 lung): 0.679 µM
TGI (NCI-H522 lung): 2.18 µM
GI50 (HL-60(TB) leukemia): 2.12 µM
TGI (HL-60(TB) leukemia): 5.18 µM
GI50 (SW-620 colon): 1.88 µM
TGI (SW-620 colon): 4.05 µM
GI50 (HCT-116 colon): 0.327 µM
TGI (HCT-116 colon): 1.21 µM
GI50 (DU-145 prostate): 0.928 µM
TGI (DU-145 prostate): 2.24 µM
GI50 (ACHN renal): 1.34 µM
TGI (ACHN renal): 2.62 µM
GI50 (HOP-62 NSCLC): 1.39 µM
TGI (HOP-62 NSCLC): 2.8 µM
GI50 (NCI/ADR-RES ovarian): 1.88 µM
TGI (NCI/ADR-RES ovarian): 6.19 µM
GI50 (MALME-3M melanoma): 0.171 µM
TGI (MALME-3M melanoma): 0.311 µM
GI50 (HOP-92 NSCLC): 1.77 µM
TGI (HOP-92 NSCLC): 3.33 µM
GI50 (M14 melanoma): 0.381 µM
TGI (M14 melanoma): 1.23 µM
GI50 (COLO 205 colon): 1.91 µM
TGI (COLO 205 colon): 3.82 µM
GI50 (OVCAR-5 ovarian): 1.72 µM
TGI (OVCAR-5 ovarian): 3.15 µM
GI50 (UACC-257 melanoma): 0.57 µM
TGI (UACC-257 melanoma): 1.78 µM
GI50 (U251 CNS): 0.296 µM
TGI (U251 CNS): 0.928 µM
GI50 (TK-10 renal): 1.82 µM
TGI (TK-10 renal): 3.23 µM
GI50 (SN12C renal): 0.965 µM
TGI (SN12C renal): 2.33 µM
GI50 (NCI-H23 lung): 0.42 µM
TGI (NCI-H23 lung): 2.8 µM
GI50 (CAKI-1 renal): 1.67 µM
TGI (CAKI-1 renal): 3.22 µM
GI50 (SNB-75 CNS): 1.56 µM
TGI (SNB-75 CNS): 2.92 µM
GI50 (MDA-MB-435): 0.186 µM
TGI (MDA-MB-435): 0.336 µM
GI50 (SK-OV-3 ovarian): 1.78 µM
TGI (SK-OV-3 ovarian): 3.18 µM
GI50 (MDA-MB-231 breast): 0.85 µM
TGI (MDA-MB-231 breast): 2.32 µM
GI50 (EKVX NSCLC): 1.65 µM
TGI (EKVX NSCLC): 3.01 µM
GI50 (BT-549 breast): 1.36 µM
TGI (BT-549 breast): 2.65 µM
GI50 (UO-31 renal): 1.47 µM
TGI (UO-31 renal): 2.79 µM
GI50 (OVCAR-4 ovarian): 0.481 µM
TGI (OVCAR-4 ovarian): 1.71 µM
GI50 (NCI-H460 lung): 1.53 µM
TGI (NCI-H460 lung): 3.34 µM
GI50 (SK-MEL-5 melanoma): 0.936 µM
TGI (SK-MEL-5 melanoma): 2.25 µM
GI50 (HCC-2998 colon): 1.6 µM
TGI (HCC-2998 colon): 3.13 µM
GI50 (SR leukemia): 0.488 µM
TGI (SR leukemia): 3.86 µM
